Where two headings read alike, the source gives them in different places.
Legend:
Assay in all cases: NCI anticancer screen, SRB assay, 48 h
Type in all cases: cell-based, human
786-0 (renal) = details: Homo sapiens
How it was run: (§1)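 Sulforhodamine B protein assay read cell growth after 48 h of continuous compound exposure. Dose-response curves per cell line used at least five 10-fold-diluted concentrations, within a panel of fifty-three human lines from nine tumour types.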

ACHN (renal) = details: Homo sapiens
How it was run: as §1

HCT-116 (colon) = details: Homo sapiens
How it was run: as §1

[1] = tested on: HOP-62 (non-small cell lung); details: Homo sapiens
How it was run: as §1

HS 578T (breast) = details: Homo sapiens
How it was run: as §1

HT29 (colon) = details: Homo sapiens
How it was run: as §1

[2] = tested on: K-562 (leukemia cell line); details: Homo sapiens
How it was run: as §1

LOX IMVI (melanoma) = details: Homo sapiens
How it was run: as §1

M14 (melanoma) = details: Homo sapiens
How it was run: as §1

MALME-3M (melanoma) = details: Homo sapiens
How it was run: as §1

MCF7 (breast) = details: Homo sapiens
How it was run: as §1

MDA-MB-231/ATCC (breast) = details: Homo sapiens
How it was run: as §1

[3] = tested on: NCI-H226 (non-small cell lung); details: Homo sapiens
How it was run: as §1

[4] = tested on: NCI-H460 (non-small cell lung); details: Homo sapiens
How it was run: as §1

NCI/ADR-RES (ovarian) = details: Homo sapiens, NCI/ADR-RES
How it was run: as §1

OVCAR-4 (ovarian) = details: Homo sapiens
How it was run: as §1

OVCAR-8 (ovarian) = details: Homo sapiens
How it was run: as §1

[5] = tested on: RPMI-8226 (leukemia cell line); details: Homo sapiens
How it was run: as §1

RXF 393 (renal) = details: Homo sapiens
How it was run: as §1

SF-268 (CNS) = details: Homo sapiens
How it was run: as §1

SF-295 (CNS) = details: Homo sapiens
How it was run: as §1

SK-MEL-28 (melanoma) = details: Homo sapiens
How it was run: as §1

SK-OV-3 (ovarian) = details: Homo sapiens
How it was run: as §1

SNB-19 (CNS) = details: Homo sapiens
How it was run: as §1

SNB-75 (CNS) = details: Homo sapiens
How it was run: as §1

SW-620 (colon) = details: Homo sapiens
How it was run: as §1

U251 (CNS) = details: Homo sapiens
How it was run: as §1

UACC-257 (melanoma) = details: Homo sapiens
How it was run: as §1

UACC-62 (melanoma) = details: Homo sapiens
How it was run: as §1

[6] = 48 h exposure, SRB, read-out: GI50
[7] = read-out: pGI50 (-log of molar concentration causing 50% inhibition of net cell growth) (converted)
[8] = HT-29, 48 h exposure, SRB, read-out: GI50
[9] = HT-29, read-out: pGI50 (-log of molar concentration causing 50% inhibition of net cell growth) (converted)
[10] = K562, 48 h exposure, SRB, read-out: GI50
[11] = K562, read-out: pGI50 (-log of molar concentration causing 50% inhibition of net cell growth) (converted)
[12] = Malme-3M, read-out: pGI50 (-log of molar concentration causing 50% inhibition of net cell growth) (converted)
[13] = MALME-3M, 48 h exposure, SRB, read-out: GI50
[14] = NCl/ADR-RES, 48 h exposure, SRB, read-out: GI50
[15] = RXF 393, 48 h exposure, SRB, read-out: GI50
[16] = RXF-393, read-out: pGI50 (-log of molar concentration causing 50% inhibition of net cell growth) (converted)
[17] = U-251, 48 h exposure, SRB, read-out: GI50
[18] = U-251, read-out: pGI50 (-log of molar concentration causing 50% inhibition of net cell growth) (converted)

## O=C(/C=C/c1cccc(O)c1)c1cccc(-n2cc(-c3ccccc3)[nH]c2=O)c1 [4a, 1-3-[(E)-3-(3-hydroxyphenyl)-2-propenoyl]phenyl-4-phenyl-2,3-dihydro-1H-2-imidazolone]
786-0 (renal); [6]
  GI50: 2980 nM
786-0 (renal); [7]
  GI50: 2950 nM
ACHN (renal); [6]
  GI50: 2760 nM
ACHN (renal); [7]
  GI50: 2750 nM
HCT-116 (colon); [6]
  GI50: 3020 nM
HCT-116 (colon); [7]
  GI50: 3020 nM
[1]; [6]
  GI50: 6930 nM
[1]; [7]
  GI50: 6920 nM
HS 578T (breast); [6]
  GI50: 6140 nM
HS 578T (breast); [7]
  GI50: 6170 nM
HT29 (colon); [8]
  GI50: 3330 nM
HT29 (colon); [9]
  GI50: 3310 nM
[2]; [10]
  GI50: 3350 nM
[2]; [11]
  GI50: 3390 nM
LOX IMVI (melanoma); [6]
  GI50: 1850 nM
LOX IMVI (melanoma); [7]
  GI50: 1860 nM
M14 (melanoma); [6]
  GI50: 4530 nM
M14 (melanoma); [7]
  GI50: 4570 nM
MALME-3M (melanoma); [12]
  GI50: 6170 nM
MALME-3M (melanoma); [13]
  GI50: 6210 nM
MCF7 (breast); [6]
  GI50: 2470 nM
MCF7 (breast); [7]
  GI50: 2450 nM
MDA-MB-231/ATCC (breast); [6]
  GI50: 3860 nM
MDA-MB-231/ATCC (breast); [7]
  GI50: 3890 nM
[3]; [6]
  GI50: 24800 nM
[3]; [7]
  GI50: 24500 nM
[4]; [6]
  GI50: 2490 nM
[4]; [7]
  GI50: 2510 nM
NCI/ADR-RES (ovarian); [14]
  GI50: 3730 nM
NCI/ADR-RES (ovarian); [7]
  GI50: 3720 nM
OVCAR-4 (ovarian); [6]
  GI50: 5300 nM
OVCAR-4 (ovarian); [7]
  GI50: 5250 nM
OVCAR-8 (ovarian); [6]
  GI50: 2800 nM
OVCAR-8 (ovarian); [7]
  GI50: 2820 nM
[5]; [6]
  GI50: 2150 nM
[5]; [7]
  GI50: 2140 nM
RXF 393 (renal); [15]
  GI50: 1890 nM
RXF 393 (renal); [16]
  GI50: 1910 nM
SF-268 (CNS); [6]
  GI50: 4530 nM
SF-268 (CNS); [7]
  GI50: 4570 nM
SF-295 (CNS); [6]
  GI50: 18200 nM
SF-295 (CNS); [7]
  GI50: 18200 nM
SK-MEL-28 (melanoma); [6]
  GI50: 5630 nM
SK-MEL-28 (melanoma); [7]
  GI50: 5620 nM
SK-OV-3 (ovarian); [6]
  GI50: 11100 nM
SK-OV-3 (ovarian); [7]
  GI50: 11200 nM
SNB-19 (CNS); [6]
  GI50: 10900 nM
SNB-19 (CNS); [7]
  GI50: 11000 nM
SNB-75 (CNS); [6]
  GI50: 12100 nM
SNB-75 (CNS); [7]
  GI50: 12000 nM
SW-620 (colon); [6]
  GI50: 2410 nM
SW-620 (colon); [7]
  GI50: 2400 nM
U251 (CNS); [17]
  GI50: 1610 nM
U251 (CNS); [18]
  GI50: 1620 nM
UACC-257 (melanoma); [6]
  GI50: 7680 nM
UACC-257 (melanoma); [7]
  GI50: 7760 nM
UACC-62 (melanoma); [6]
  GI50: 3650 nM
UACC-62 (melanoma); [7]
  GI50: 3630 nM

## O=C(/C=C/c1cccc(O)c1)c1cccc(-n2cc(-c3ccc(Cl)cc3)[nH]c2=O)c1 [4f, 4-(4-chlorophenyl)-1-3-[(E)-3-(3-hydroxyphenyl)-2-propenoyl]phenyl-2,3-dihydro-1H-2-imidazolone]
786-0 (renal); [6]
  GI50: 1570 nM
786-0 (renal); [7]
  GI50: 1580 nM
ACHN (renal); [6]
  GI50: 1840 nM
ACHN (renal); [7]
  GI50: 1820 nM
HCT-116 (colon); [6]
  GI50: 1230 nM
HCT-116 (colon); [7]
  GI50: 1230 nM
[1]; [6]
  GI50: 2360 nM
[1]; [7]
  GI50: 2340 nM
HS 578T (breast); [6]
  GI50: 4000 nM
HS 578T (breast); [7]
  GI50: 3980 nM
HT29 (colon); [8]
  GI50: 1900 nM
HT29 (colon); [9]
  GI50: 1910 nM
[2]; [10]
  GI50: 400 nM
[2]; [11]
  GI50: 398 nM
LOX IMVI (melanoma); [6]
  GI50: 1570 nM
LOX IMVI (melanoma); [7]
  GI50: 1580 nM
M14 (melanoma); [6]
  GI50: 2010 nM
M14 (melanoma); [7]
  GI50: 2000 nM
MALME-3M (melanoma); [12]
  GI50: 1820 nM
MALME-3M (melanoma); [13]
  GI50: 1830 nM
MCF7 (breast); [6]
  GI50: 1270 nM
MCF7 (breast); [7]
  GI50: 1290 nM
MDA-MB-231/ATCC (breast); [6]
  GI50: 3350 nM
MDA-MB-231/ATCC (breast); [7]
  GI50: 3390 nM
[3]; [6]
  GI50: 2310 nM
[3]; [7]
  GI50: 2290 nM
[4]; [6]
  GI50: 2410 nM
[4]; [7]
  GI50: 2400 nM
NCI/ADR-RES (ovarian); [14]
  GI50: 2200 nM
NCI/ADR-RES (ovarian); [7]
  GI50: 2190 nM
OVCAR-4 (ovarian); [6]
  GI50: 2210 nM
OVCAR-4 (ovarian); [7]
  GI50: 2190 nM
OVCAR-8 (ovarian); [6]
  GI50: 990 nM
OVCAR-8 (ovarian); [7]
  GI50: 1000 nM
[5]; [6]
  GI50: 1550 nM
[5]; [7]
  GI50: 1550 nM
RXF 393 (renal); [15]
  GI50: 1510 nM
RXF 393 (renal); [16]
  GI50: 1510 nM
SF-268 (CNS); [6]
  GI50: 1780 nM
SF-268 (CNS); [7]
  GI50: 1780 nM
SF-295 (CNS); [6]
  GI50: 1790 nM
SF-295 (CNS); [7]
  GI50: 1780 nM
SK-MEL-28 (melanoma); [6]
  GI50: 3640 nM
SK-MEL-28 (melanoma); [7]
  GI50: 3630 nM
SK-OV-3 (ovarian); [6]
  GI50: 4210 nM
SK-OV-3 (ovarian); [7]
  GI50: 4170 nM
SNB-19 (CNS); [6]
  GI50: 1920 nM
SNB-19 (CNS); [7]
  GI50: 1910 nM
SNB-75 (CNS); [6]
  GI50: 1460 nM
SNB-75 (CNS); [7]
  GI50: 1450 nM
SW-620 (colon); [6]
  GI50: 1620 nM
SW-620 (colon); [7]
  GI50: 1620 nM
U251 (CNS); [17]
  GI50: 580 nM
U251 (CNS); [18]
  GI50: 575 nM
UACC-257 (melanoma); [6]
  GI50: 4070 nM
UACC-257 (melanoma); [7]
  GI50: 4070 nM
UACC-62 (melanoma); [6]
  GI50: 1850 nM
UACC-62 (melanoma); [7]
  GI50: 1860 nM
